Where two headings read alike, the source gives them in different places.
What was measured:
[1] = Effect on body weight of slightly obese mice, drug-food mixture; assay type: in vivo, mice (ICR); conditions: for Body weight change compared with control group (in words): 4 weeks; for Body weight gain, Week Four / Body weight gain, Week One / Body weight gain, Week Three / Body weight gain, Week Two: ad libitum, female ICR mice
Procedure: Slightly obese female mice (ICR) having an average weight of 20-25 g were used in these studies. Compound 1 (Example 1; anacardic acid) was administered as a drug-food mixture. Normal mouse chow was powdered and the drug added to achieve a final concentration of 1 mg (low dose), 3 mg (intermediate dose), and 10 mg (high dose) per 100 g of food. The powdered chow was then repelleted into its usual form. Control chow was similarly prepared without addition of drug. Four groups of ten animals were assigned to receive normal chow (controls) or the drug in the low dose, in the intermediate dose or in the high dose. The animals were fed ad libitum over a 4-week period.

[2] = Toxicity in mice over 4 weeks; assay type: in vivo; conditions: 300 mg/kg dose, over a period of 4 weeks
Source text: This finding, combined with in vitro enzyme inhibiting activities, provides evidence that the naturally occurring phenols of the formula (I) have unexpected utility in treating obesity in a mammalian subject.

[3] = Effect on body fat in rats on carbohydrate enriched diet; assay type: in vivo, Sprague-Dawley rats; conditions: for Epididymal Fat Weight / Final Body Weight / Inguinal Fat Weight: male rats
Source text: Male Sprague-Dawley weanling rats (Bioresearch Services, Oriental Yeast Co. Ltd.) of three weeks old were used in this study. They were allotted to two treatment groups of five rats when they weighed an average of about 65 g. The animals were fed carbohydrate enriched diets ad libitum for a period of 31 days.
Control rate received the above diet. Two groups received different levels of compound 1 (Example 1), 0.1% and 0.2%, respectively. At the conclusion of the test, all animals were sacrificed. Inguinal fat, epididymal fat, liver, kidney, spleen, lung, heart, thymus gland, brown adipose tissue and pectoral muscle were excised and weighted.

[4] = Effect on fat content of broiler chickens; assay type: in vivo; conditions: 27 days; for Fat Weight / Final Body Weight: broilers
Procedure: Four groups of 5 seven-day old broiler having an average weight of 129 g were used. A test diet was available ad libitum to all birds during the test period (27 days).
Control birds received no test compound. […] At the conclusion of the test, all birds were sacrificed and processed to determine fat weights and body weights. Feed intake was also recorded.

[5] = target: T1, α-glucosidase (EC3.2.1.20) (Saccharomyces cerevisiae, UniProt P53341); test: α-Glucosidase inhibition; assay type: biochemical
T1 construct: purchased Sigma Chemical Company
T1 sequence (P53341 whole entry): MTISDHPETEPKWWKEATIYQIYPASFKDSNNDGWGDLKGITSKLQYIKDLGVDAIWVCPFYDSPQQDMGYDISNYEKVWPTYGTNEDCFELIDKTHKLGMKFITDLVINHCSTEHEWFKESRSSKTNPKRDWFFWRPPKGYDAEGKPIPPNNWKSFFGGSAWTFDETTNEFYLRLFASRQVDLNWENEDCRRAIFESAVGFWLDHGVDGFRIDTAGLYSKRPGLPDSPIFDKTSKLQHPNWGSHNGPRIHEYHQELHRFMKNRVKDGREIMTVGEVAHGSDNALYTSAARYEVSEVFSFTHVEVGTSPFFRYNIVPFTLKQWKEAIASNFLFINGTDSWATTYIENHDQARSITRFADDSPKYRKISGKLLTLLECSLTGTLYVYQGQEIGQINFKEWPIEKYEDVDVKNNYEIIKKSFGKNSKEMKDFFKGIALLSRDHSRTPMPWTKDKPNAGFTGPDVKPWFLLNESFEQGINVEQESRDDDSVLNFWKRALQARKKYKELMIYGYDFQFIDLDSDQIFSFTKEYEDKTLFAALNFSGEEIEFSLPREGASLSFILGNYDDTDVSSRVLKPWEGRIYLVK
Procedure: The assay was conducted essentially according to the procedure of H. L. Lai, as described in Biochem. Biophys.
The α-glucosidase (EC3.2.1.20) was purchased from Sigma Chemical Company. The enzyme solution (100 μg/ml, 0.1 ml), 0.1 M phosphate buffer (pH 6.8, 2.55 ml), 10 mM nitrophenyl glucoside (0.1 ml), and a sample solution in DMSO (0.15 ml) were combined and incubated for 10 minutes at 37° C. After incubation, the hydrolysis was stopped by the addition of 1 ml of 16(w/v)% of sodium carbonate. Liberated p-nitrophenol was measured at 400 nm.

[6] = target: T2, invertase (or β-fructofuranosidase; EC 3.2.1.26) (Saccharomyces cerevisiae, UniProt P00724); test: Invertase inhibition; assay type: biochemical; conditions: 200 μg/ml; pH 4.5, sucrose substrate; read-out: % Inhibition of invertase enzyme activity
T2 construct: purchased Sigma Chemical Company
T2 sequence (P00724 20-532): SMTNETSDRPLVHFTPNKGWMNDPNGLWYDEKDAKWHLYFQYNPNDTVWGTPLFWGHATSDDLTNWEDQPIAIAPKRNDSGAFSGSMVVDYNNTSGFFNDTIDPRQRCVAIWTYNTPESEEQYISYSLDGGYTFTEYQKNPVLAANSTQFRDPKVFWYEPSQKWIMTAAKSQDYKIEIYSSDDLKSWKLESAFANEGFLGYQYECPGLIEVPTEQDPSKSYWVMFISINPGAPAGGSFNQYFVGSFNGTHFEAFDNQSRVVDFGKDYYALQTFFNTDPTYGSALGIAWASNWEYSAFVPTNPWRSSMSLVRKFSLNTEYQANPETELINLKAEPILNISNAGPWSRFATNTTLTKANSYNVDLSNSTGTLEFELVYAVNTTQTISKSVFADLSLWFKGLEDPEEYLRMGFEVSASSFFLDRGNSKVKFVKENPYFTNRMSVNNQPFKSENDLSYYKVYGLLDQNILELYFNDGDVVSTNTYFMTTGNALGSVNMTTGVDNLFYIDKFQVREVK
Procedure: The following phenols (compound numbers correspond to those designated in Example 1) were tested at a concentration of 200 μg/ml for their ability to inhibit invertase enzyme activity. The assay was conducted essentially according to the procedure of I. H. Segel, et al., as described in Biochemical Calculation, John Wiley Sons, New York, p. 287-290 (1976).
The invertase (or β-fructofuranosidase; EC 3.2.1.26) was purchased from Sigma Chemical Company. The enzyme solution (100 μg/ml, 0.1 ml), 0.2 M acetate buffer (pH 4.5, 0.2 ml), 0.5 M sucrose (0.2 ml), and a sample solution in water/DMSO (0.6 ml) were combined and incubated for 10 minutes at 37° C. After incubation, the hydrolysis was stopped by the addition of Nelson reagent. Liberated reduced sugar was measured at 500 nm by the method of Somogyi-Nelson [N. Nelson, et al., J. Biol. Chem., 153, 375 (1944)].

[7] = High dose, 10 mg per 100 g of food
[8] = Intermediate dose, 3 mg per 100 g of food
[9] = Low dose, 1 mg per 100 g of food
[10] = 10 minutes at 37° C., pH 6.8, nitrophenyl glucoside substrate

Question: What does the source list for CCCCCCCCCCCCCCCc1cccc(O)c1C(=O)O [Compound 1, 6 - Pentadecylsalicylic Acid]?
Answer: Body weight change compared with control group (in words) [1, 7]: gained less weight than mice in the control group; Body weight gain, Week Four [1, 7]: +4.75 g; Body weight gain, Week One [1, 7]: +0.31 g; Body weight gain, Week Three [1, 7]: +4.13 g; Body weight gain, Week Two [1, 7]: +1.88 g; Body weight change compared with control group (in words) [1, 8]: gained less weight than mice in the control group; Body weight gain, Week Four [1, 8]: +5.00 g; Body weight gain, Week One [1, 8]: +0.56 g; Body weight gain, Week Three [1, 8]: +4.5 g; Body weight gain, Week Two [1, 8]: +2.13 g; Body weight change compared with control group (in words) [1, 9]: no significant deviation in body weight from the control group; Body weight gain, Week Four [1, 9]: +5.13 g; Body weight gain, Week One [1, 9]: +0.63 g; Body weight gain, Week Three [1, 9]: +4.63 g; Body weight gain, Week Two [1, 9]: +2.19 g; Toxicity [2]: no toxicity; Epididymal Fat Weight ([3]; 0.1% in diet, 31 days): 3.2 g; Final Body Weight ([3]; 0.1% in diet, 31 days): 301.6 g; Inguinal Fat Weight ([3]; 0.1% in diet, 31 days): 7.1 g; Epididymal Fat Weight ([3]; 0.2% in diet, 31 days): 3.7 g; Final Body Weight ([3]; 0.2% in diet, 31 days): 311.0 g; Inguinal Fat Weight ([3]; 0.2% in diet, 31 days): 7.5 g; Reduction in fat deposition ([3]; anacardic acid in the animal diet, statement on Tables 4 and 7 (broilers and rats)): ≥ 20%; Loss of initial body weight ([3]; rats receiving anacardic acid in diet, 31 days): less than 10%; Fat Weight ([4]; 0.1% in diet): 12 g; Final Body Weight ([4]; 0.1% in diet): 110 g; Fat Weight ([4]; 0.2% in diet): 10 g; Final Body Weight ([4]; 0.2% in diet): 108 g; Loss of the initial body weight ([4]; birds receiving anacardic acid in diet): approximately 10%; IC50 [5, 10]: 7.17 µM

Question: For CCC/C=C\C/C=C\CCCCCCCc1cccc(O)c1C(=O)O [Compound 3, 6-[8(z), 11(z)-pentadecadienyl] salicylic acid], which IC50 [5, 10] is on record?
Answer: Its IC50 is 3.77 µM.

Question: For C=CC/C=C\C/C=C\CCCCCCCc1cccc(O)c1C(=O)O [Compound 4, 6-[8(z), 11(z), 14pentadecatrienyl] salicylic acid], which inhibition at 200 µg/mL [6] is on record?
Answer: The inhibition at 200 µg/mL was 73%.

Question: What about the IC50 [5, 10] of the same molecule?
Answer: Its IC50 is 0.876 µM.

Question: For CCCCCCCCCCCCCCCc1cccc(O)c1 [Compound 5, 3 - Pentadecylphenol], which IC50 [5, 10] is on record?
Answer: The IC50 was 483 µM.

Question: Which IC50 [5, 10] does the source give for CCCCCCCCCCCCCCCc1cc(O)c(C)c(O)c1 [Compound 9, 2-Methyl-5-pentadecylresorcinol] here?
Answer: Its IC50 is 38.9 µM.

Question: For CCCCCC/C=C\CCCCCCCc1cc(O)c(C)c(O)c1 [Compound 10, 2-methyl-5-[8(z)-pentadecenyl]resorcinol], which IC50 [5, 10] is on record?
Answer: Its IC50 is 165 µM.

Question: Which IC50 [5, 10] does the source give for CCC/C=C\C/C=C\CCCCCCCc1cc(O)c(C)c(O)c1 [Compound 11, 2-methyl-5-[8(z), 11(z)-pentadecadienyl] resorcinol] here?
Answer: Its IC50 is 151 µM.

Question: What does the source list for C=CC/C=C\C/C=C\CCCCCCCc1cc(O)c(C)c(O)c1 [Compound 12, 2-methyl-5-[8(z), 11(z), 14-pentadecatrienyl]resorcinol]?
Answer: inhibition at 200 µg/mL [6]: 79%; IC50 [5, 10]: 170 µM

Question: For CCCCCCCCCCCCCCCc1cc(O)cc(O)c1 [Compound 13, 5-Pentadecylresorcinol], which IC50 [5, 10] is on record?
Answer: Its IC50 is 268 µM.

Question: What does the source list for C=CC/C=C\C/C=C\CCCCCCCc1cc(O)cc(O)c1 [Compound 16, 5-[8(z), 11(z), 14-pentadecatrienyl]resorcinol]?
Answer: inhibition at 200 µg/mL [6]: 32%; IC50 [5]: 44.5 µM
